Reference: ChEMBL document CHEMBL1201862, “PubChem BioAssay data set” (2004)
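Compound exposure: 48 hours, 5 concentrations, 96-well plates. GI50: concentration for 50% inhibition of growth.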 The source made the active and inactive calls. No stated cut-off is given here; in the data, active = GI50 up to about 1.1 µM and inactive = higher.

Experiments:
Assay in all cases: NCI tumour cell line growth inhibition, 48 h
MCF7 = system: MCF7
UACC-257 = system: UACC-257
OVCAR-4 = system: OVCAR-4
OVCAR-3 = system: OVCAR-3
U-251 = system: U-251
OVCAR-5 = system: OVCAR-5
UACC-62 = system: UACC-62
A498 = system: A498
RPMI-8226 = system: RPMI-8226
MDA-MB-435 = system: MDA-MB-435
NCI-H226 = system: NCI-H226
BT-549 = system: BT-549
MOLT-4 = system: MOLT-4
SK-MEL-5 = system: SK-MEL-5
HCT-15 = system: HCT-15
SW-620 = system: SW-620
Malme-3M = system: Malme-3M
EKVX = system: EKVX
NCI-H23 = system: NCI-H23
SN12C = system: SN12C
NCI/ADR-RES = system: NCI/ADR-RES
A549 = system: A549
M14 = system: M14
HCC 2998 = system: HCC 2998
SF-539 = system: SF-539
UO-31 = system: UO-31
CCRF-CEM = system: CCRF-CEM
TK-10 = system: TK-10
CAKI-1 = system: CAKI-1
HL-60 = system: HL-60
SF-268 = system: SF-268
T47D = system: T47D
MDA-MB-231 = system: MDA-MB-231
K562 = system: K562
KM12 = system: KM12
HOP-62 = system: HOP-62
SK-MEL-2 = system: SK-MEL-2
OVCAR-8 = system: OVCAR-8
HCT-116 = system: HCT-116
SF-295 = system: SF-295
786-0 = system: 786-0
ACHN = system: ACHN
SR = system: SR
IGROV-1 = system: IGROV-1
SK-MEL-28 = system: SK-MEL-28
RXF 393 = system: RXF 393
HT-29 = system: HT-29
NCI-H522 = system: NCI-H522
SK-OV-3 = system: SK-OV-3
PC-3 = system: PC-3
NCI-H460 = system: NCI-H460
SNB-75 = system: SNB-75
HOP-92 = system: HOP-92
LOX IMVI = system: LOX IMVI
Hs-578T = system: Hs-578T

Measured: GI50

COC(=O)C(/C(=N/N)C(=O)Nc1ccc(C)c(C)c1)c1nc2ccc(Cl)cc2nc1O (stereo not given)
> 100 µM: HCT-15
inactive: MCF7 > 100 µM | UACC-257 > 100 µM | OVCAR-4 > 100 µM | OVCAR-3 > 100 µM | U-251 > 100 µM | OVCAR-5 > 100 µM | UACC-62 > 100 µM | A498 > 100 µM | RPMI-8226 > 100 µM | MDA-MB-435 > 100 µM | NCI-H226 > 100 µM | BT-549 > 100 µM | MOLT-4 > 100 µM | SK-MEL-5 > 100 µM | SW-620 > 100 µM | Malme-3M > 100 µM | EKVX 74.5 µM | NCI-H23 > 100 µM | SN12C > 100 µM | NCI/ADR-RES > 100 µM | A549 > 100 µM | M14 > 100 µM | HCC 2998 > 100 µM | SF-539 > 100 µM | UO-31 28.4 µM | CCRF-CEM > 100 µM | TK-10 > 100 µM | CAKI-1 > 100 µM | HL-60 > 100 µM | SF-268 > 100 µM | T47D > 100 µM | MDA-MB-231 > 100 µM | K562 > 100 µM | KM12 > 100 µM | HOP-62 > 100 µM | SK-MEL-2 > 100 µM | OVCAR-8 > 100 µM | HCT-116 > 100 µM | SF-295 > 100 µM | 786-0 > 100 µM | ACHN 40.3 µM | SR > 100 µM | IGROV-1 49.3 µM | SK-MEL-28 > 100 µM | RXF 393 > 100 µM | HT-29 > 100 µM | NCI-H522 > 100 µM | SK-OV-3 > 100 µM | PC-3 > 100 µM | NCI-H460 > 100 µM | SNB-75 > 100 µM | HOP-92 > 100 µM | LOX IMVI > 100 µM | Hs-578T > 100 µM
